Measurements: patent US20230085307A1, “PYRIDAZINONE COMPOUND AND HERBICIDE” (NISSAN CHEMICAL CORPORATION, priority 2019, published 2023)

Legend:
redroot pigweed [1] = assay: Test Example 4: herbicidal effect by soil treatment (Table 19, symbol N); assay type: in vivo, redroot pigweed (Amaranthus retroflexus); conditions: amount of applied herbicide 320 g/ha
Outline: (§1)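 Three weeks of greenhouse growth at 25° C. to 30° C. followed a uniform surface spray of water-diluted emulsion at a predetermined herbicide amount. Seeds had been sown beforehand under about 1.5 cm of sterilized diluvial soil. Grading followed criteria set out in an earlier test.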

redroot pigweed [2] = assay: Test Example 5: herbicidal effect by foliage application, plastic box (Table 20, symbol N); assay type: in vivo, redroot pigweed (Amaranthus retroflexus)
Outline: (§2)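 Plants sown in sterilized diluvial soil and grown 14 days in a greenhouse at 25° C to 30° C, then sprayed on the foliage with the compound's emulsion diluted in water to a predetermined herbicide amount. Injury to weeds and crops scored three weeks after application on a visual rating scale.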

barnyard grass [3] = assay: Test Example 4: herbicidal effect by soil treatment (Table 19, symbol H); assay type: in vivo, barnyard grass (Echinochloa crus-galli); conditions: amount of applied herbicide 320 g/ha
Outline: as §1

barnyard grass [4] = assay: Test Example 3: herbicidal effect by foliage application, Wagner pot (Table 18, symbol H); assay type: in vivo, barnyard grass (Echinochloa crus-galli)
Outline: (§3)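 Plants were sown in alluvial soil held under 0.1–0.5 cm standing water and grown 14 days in a greenhouse at 25–30 °C. An emulsifiable formulation, water-diluted to the set dose, was then sprayed onto the foliage, and effects were scored three weeks later using previously defined criteria.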

blackgrass [5] = assay: Test Example 5: herbicidal effect by foliage application, plastic box (Table 20, symbol J); assay type: in vivo, blackgrass (Alopecurus myosuroides)
Outline: as §2

windgrass [6] = assay: Test Example 5: herbicidal effect by foliage application, plastic box (Table 20, symbol L); assay type: in vivo, windgrass (Apera spica-venti)
Outline: as §2

chickweed [7] = assay: Test Example 5: herbicidal effect by foliage application, plastic box (Table 20, symbol P); assay type: in vivo, common chickweed (Stellaria media)
Outline: as §2

wild oat [8] = assay: Test Example 5: herbicidal effect by foliage application, plastic box (Table 20, symbol I); assay type: in vivo, wild oat (Avena fatua)
Outline: as §2

velvetleaf [9] = assay: Test Example 5: herbicidal effect by foliage application, plastic box (Table 20, symbol M); assay type: in vivo, velvetleaf (Abutilon theophrasti)
Outline: as §2

windgrass [10] = assay: Test Example 4: herbicidal effect by soil treatment (Table 19, symbol L); assay type: in vivo, windgrass (Apera spica-venti); conditions: amount of applied herbicide 320 g/ha
Outline: as §1

rice flat sedge = assay: Test Example 3: herbicidal effect by foliage application, Wagner pot (Table 18, symbol E); assay type: in vivo, rice flat sedge (Cyperus iria)
Outline: as §3

blackgrass [11] = assay: Test Example 4: herbicidal effect by soil treatment (Table 19, symbol J); assay type: in vivo, blackgrass (Alopecurus myosuroides); conditions: amount of applied herbicide 320 g/ha
Outline: as §1

chickweed [12] = assay: Test Example 4: herbicidal effect by soil treatment (Table 19, symbol P); assay type: in vivo, common chickweed (Stellaria media); conditions: amount of applied herbicide 320 g/ha
Outline: as §1

wild oat [13] = assay: Test Example 4: herbicidal effect by soil treatment (Table 19, symbol I); assay type: in vivo, wild oat (Avena fatua); conditions: amount of applied herbicide 320 g/ha
Outline: as §1

velvetleaf [14] = assay: Test Example 4: herbicidal effect by soil treatment (Table 19, symbol M); assay type: in vivo, velvetleaf (Abutilon theophrasti); conditions: amount of applied herbicide 320 g/ha
Outline: as §1

lambsquarters [15] = assay: Test Example 4: herbicidal effect by soil treatment (Table 19, symbol O); assay type: in vivo, lambsquarters (Chenopodium album); conditions: amount of applied herbicide 320 g/ha
Outline: as §1

Italian ryegrass [16] = assay: Test Example 4: herbicidal effect by soil treatment (Table 19, symbol K); assay type: in vivo, Italian ryegrass (Lolium multiflorum); conditions: amount of applied herbicide 320 g/ha
Outline: as §1

persian speedwell [17] = assay: Test Example 4: herbicidal effect by soil treatment (Table 19, symbol R); assay type: in vivo, Persian speedwell (Veronica persica); conditions: amount of applied herbicide 320 g/ha
Outline: as §1

Italian ryegrass [18] = assay: Test Example 5: herbicidal effect by foliage application, plastic box (Table 20, symbol K); assay type: in vivo, Italian ryegrass (Lolium multiflorum)
Outline: as §2

barnyard grass [19] = assay: Test Example 5: herbicidal effect by foliage application, plastic box (Table 20, symbol H); assay type: in vivo, barnyard grass (Echinochloa crus-galli)
Outline: as §2

green foxtail [20] = assay: Test Example 5: herbicidal effect by foliage application, plastic box (Table 20, symbol G); assay type: in vivo, green foxtail (Setaria viridis)
Outline: as §2

persian speedwell [21] = assay: Test Example 5: herbicidal effect by foliage application, plastic box (Table 20, symbol R); assay type: in vivo, Persian speedwell (Veronica persica)
Outline: as §2

lambsquarters [22] = assay: Test Example 5: herbicidal effect by foliage application, plastic box (Table 20, symbol O); assay type: in vivo, lambsquarters (Chenopodium album)
Outline: as §2

green foxtail [23] = assay: Test Example 4: herbicidal effect by soil treatment (Table 19, symbol G); assay type: in vivo, green foxtail (Setaria viridis); conditions: amount of applied herbicide 320 g/ha
Outline: as §1

southern crabgrass [24] = assay: Test Example 5: herbicidal effect by foliage application, plastic box (Table 20, symbol F); assay type: in vivo, southern crabgrass (Digitaria ciliaris)
Outline: as §2

southern crabgrass [25] = assay: Test Example 4: herbicidal effect by soil treatment (Table 19, symbol F); assay type: in vivo, southern crabgrass (Digitaria ciliaris); conditions: amount of applied herbicide 320 g/ha
Outline: as §1

Chinese sprangletop = assay: Test Example 3: herbicidal effect by foliage application, Wagner pot (Table 18, symbol D); assay type: in vivo, chinese sprangletop (Leptochloa chinensis)
Outline: as §3

[26] = foliage application, 320 g/ha, three weeks after application
[27] = amount of applied herbicide 320 g/ha
[28] = amount of applied herbicide 320 g/ha, foliage application after 14-day growth, evaluated three weeks after application

CON=C(C)c1ccc(-c2sc3cc(F)ccc3c2-c2c(O)c(C)nn(C)c2=O)cc1 [3-017]
herbicidal effect, N: redroot pigweed (redroot pigweed [1]): 5 (Herbicidal rate of 90% or more (almost completely withered)) | N: redroot pigweed, herbicidal effect grade (redroot pigweed [2]; [26]): 5 (Herbicidal rate of 90% or more (almost completely withered)) | herbicidal effect, H: barnyard grass (barnyard grass [3]): 0 (Herbicidal rate of 5% or less (almost no effect)) | herbicidal effect on H: barnyard grass (barnyard grass [4]; [27]): 3 (Herbicidal rate of 40% or more and less than 70%) | J: blackgrass, herbicidal effect grade (blackgrass [5]; [26]): 3 (Herbicidal rate of 40% or more and less than 70%) | L: windgrass, herbicidal effect grade (windgrass [6]; [26]): 2 (Herbicidal rate of 20% or more and less than 40%) | P: chickweed, herbicidal effect grade (chickweed [7]; [26]): 5 (Herbicidal rate of 90% or more (almost completely withered)) | I: wild oat, herbicidal effect grade (wild oat [8]; [26]): 1 (Herbicidal rate of 5% or more and less than 20%) | M: velvetleaf, herbicidal effect grade (velvetleaf [9]; [26]): 3 (Herbicidal rate of 40% or more and less than 70%) | herbicidal effect, L: windgrass (windgrass [10]): 0 (Herbicidal rate of 5% or less (almost no effect)) | herbicidal effect on E: rice flat sedge (rice flat sedge; [27]): 0 (Herbicidal rate of 5% or less (almost no effect)) | herbicidal effect, J: blackgrass (blackgrass [11]): 0 (Herbicidal rate of 5% or less (almost no effect)) | herbicidal effect, P: chickweed (chickweed [12]): 1 (Herbicidal rate of 5% or more and less than 20%) | herbicidal effect, I: wild oat (wild oat [13]): 0 (Herbicidal rate of 5% or less (almost no effect)) | herbicidal effect, M: velvetleaf (velvetleaf [14]): 0 (Herbicidal rate of 5% or less (almost no effect)) | herbicidal effect, O: lambsquarters (lambsquarters [15]): 4 (Herbicidal rate of 70% or more and less than 90%) | herbicidal effect, K: Italian ryegrass (Italian ryegrass [16]): 3 (Herbicidal rate of 40% or more and less than 70%) | herbicidal effect, R: persian speedwell (persian speedwell [17]): 3 (Herbicidal rate of 40% or more and less than 70%) | K: Italian ryegrass, herbicidal effect grade (Italian ryegrass [18]; [26]): 4 (Herbicidal rate of 70% or more and less than 90%) | H: barnyard grass, herbicidal effect grade (barnyard grass [19]; [26]): 2 (Herbicidal rate of 20% or more and less than 40%) | G: green foxtail, herbicidal effect grade (green foxtail [20]; [26]): 5 (Herbicidal rate of 90% or more (almost completely withered)) | R: persian speedwell, herbicidal effect grade (persian speedwell [21]; [26]): 5 (Herbicidal rate of 90% or more (almost completely withered)) | O: lambsquarters, herbicidal effect grade (lambsquarters [22]; [26]): 5 (Herbicidal rate of 90% or more (almost completely withered)) | herbicidal effect, G: green foxtail (green foxtail [23]): 0 (Herbicidal rate of 5% or less (almost no effect)) | F: southern crabgrass, herbicidal effect grade (southern crabgrass [24]; [26]): 3 (Herbicidal rate of 40% or more and less than 70%) | herbicidal effect, F: southern crabgrass (southern crabgrass [25]): 0 (Herbicidal rate of 5% or less (almost no effect)) | herbicidal effect on D: Chinese sprangletop (Chinese sprangletop; [27]): 0 (Herbicidal rate of 5% or less (almost no effect))

Cc1ccc(-c2sc3cc(F)c(F)cc3c2-c2c(O)c(C)nn(C)c2=O)cc1 [5-003]
N: redroot pigweed, herbicidal effect grade (redroot pigweed [1]): 3 (Herbicidal rate of 40% or more and less than 70%) | Herbicidal effect by foliage application, N: redroot pigweed (redroot pigweed [2]; [28]): 5 (Herbicidal rate of 90% or more (almost completely withered)) | H: barnyard grass, herbicidal effect grade (barnyard grass [3]): 3 (Herbicidal rate of 40% or more and less than 70%) | herbicidal effect on barnyard grass (H) (barnyard grass [4]; 320 g/ha): 3 (Herbicidal rate of 40% or more and less than 70%) | Herbicidal effect by foliage application, J: blackgrass (blackgrass [5]; [28]): 0 (Herbicidal rate of 5% or less (almost no effect)) | Herbicidal effect by foliage application, L: windgrass (windgrass [6]; [28]): 0 (Herbicidal rate of 5% or less (almost no effect)) | Herbicidal effect by foliage application, P: chickweed (chickweed [7]; [28]): 5 (Herbicidal rate of 90% or more (almost completely withered)) | Herbicidal effect by foliage application, I: wild oat (wild oat [8]; [28]): 0 (Herbicidal rate of 5% or less (almost no effect)) | Herbicidal effect by foliage application, M: velvetleaf (velvetleaf [9]; [28]): 5 (Herbicidal rate of 90% or more (almost completely withered)) | L: windgrass, herbicidal effect grade (windgrass [10]): 0 (Herbicidal rate of 5% or less (almost no effect)) | herbicidal effect on rice flat sedge (E) (rice flat sedge; 320 g/ha): 5 (Herbicidal rate of 90% or more (almost completely withered)) | J: blackgrass, herbicidal effect grade (blackgrass [11]): 0 (Herbicidal rate of 5% or less (almost no effect)) | P: chickweed, herbicidal effect grade (chickweed [12]): 4 (Herbicidal rate of 70% or more and less than 90%) | I: wild oat, herbicidal effect grade (wild oat [13]): 0 (Herbicidal rate of 5% or less (almost no effect)) | M: velvetleaf, herbicidal effect grade (velvetleaf [14]): 2 (Herbicidal rate of 20% or more and less than 40%) | O: lambsquarters, herbicidal effect grade (lambsquarters [15]): 5 (Herbicidal rate of 90% or more (almost completely withered)) | K: Italian ryegrass, herbicidal effect grade (Italian ryegrass [16]): 0 (Herbicidal rate of 5% or less (almost no effect)) | R: persian speedwell, herbicidal effect grade (persian speedwell [17]): 4 (Herbicidal rate of 70% or more and less than 90%) | Herbicidal effect by foliage application, K: Italian ryegrass (Italian ryegrass [18]; [28]): 2 (Herbicidal rate of 20% or more and less than 40%) | Herbicidal effect by foliage application, H: barnyard grass (barnyard grass [19]; [28]): 0 (Herbicidal rate of 5% or less (almost no effect)) | Herbicidal effect by foliage application, G: green foxtail (green foxtail [20]; [28]): 2 (Herbicidal rate of 20% or more and less than 40%) | Herbicidal effect by foliage application, R: persian speedwell (persian speedwell [21]; [28]): 5 (Herbicidal rate of 90% or more (almost completely withered)) | Herbicidal effect by foliage application, O: lambsquarters (lambsquarters [22]; [28]): 5 (Herbicidal rate of 90% or more (almost completely withered)) | G: green foxtail, herbicidal effect grade (green foxtail [23]): 4 (Herbicidal rate of 70% or more and less than 90%) | Herbicidal effect by foliage application, F: southern crabgrass (southern crabgrass [24]; [28]): 0 (Herbicidal rate of 5% or less (almost no effect)) | F: southern crabgrass, herbicidal effect grade (southern crabgrass [25]): 1 (Herbicidal rate of 5% or more and less than 20%) | herbicidal effect on Chinese sprangletop (D) (Chinese sprangletop; 320 g/ha): 3 (Herbicidal rate of 40% or more and less than 70%)
